This is an account of results in patent publication US20230414506A1, “PEPTIDE FORMULATIONS AND METHODS OF USE” (REALTA LIFE SCIENCES, INC., priority 2020, published 2023).

Ends that are not written are not given here. dPEG24 = C-terminal PEG24

For data set [1], the system named is complement activity (human O sera and AB red blood cells). In words: ABO incompatibility CH50-type hemolytic assay of peptides formulated with different excipients. Conditions: for Inhibition of complement activation in the hemolytic assay: formulated in citrate, ascorbate and methionine, compared to histidine formulation. It counts as biochemical. How it is done: To ascertain if these various excipients had any effect on the functional activity of PA-dPEG24 and PA-I8Sar, the formulated peptides were tested in a hemolytic assay to determine the ability of these molecules to inhibit complement activity. For hemolytic complement assays, human red blood cells (RBCs) from type AB donors were purified, washed and standardized to 1×10^9 cells/ml, as previously described. Human sera from type O donors at a 20% final concentration was combined with increasing concentrations of the formulated peptides and the volume was brought up to 0.15 ml with GVBS++ buffer and […] RBCs. The samples were spun at 3,000 rpm for 5 minutes and the supernatant was collected and read at 412 nm. Values are represented as a percent of the positive control, which consists of human O sera and AB red blood cells in GVBS++ buffer without peptide addition.

The nature of data set [2]: Gelling of citrate buffer formulation. It is filed as physicochemical. To be noted: 80 mg/ml, pH 6.8. How it is done:
For the citrate buffer conditions, PA-dPEG24 and PA-I8Sar were formulated at a concentration of 80 mg/ml at pH 6.8. […] This gelling behavior was not observed for PA-I8Sar.

The nature of data set [3]: Aqueous solubility of the peptides. It counts as physicochemical.
The format of data set [4] is physicochemical. Conditions: 20% Intralipid, 4° C. for 48 hours.
The conditions of data set [5]: cited from earlier work.

As to IALILEP(Sar)CCQERAA [PA-I8Sar], the “Inhibition of complement activation in the hemolytic assay” value in data set [1] is “able to maintain dose-dependent inhibition of complement activation”. Moreover, in data set [2], the Gelling behavior entry is “not observed”. Besides, the “Solubility studies, character of the peptide” value in data set [3] is listed as “amphipathic”.
For the substance IALILEPICCQERAA [PA], the “Appearance of Intralipid mixture on standing” value in data set [4] is on record as “became paste-like”.
“IALILEPICCQERAA-dPEG24 (cysteine pairing not given here) [PA-dPEG24]”: the “Complement inhibiting activity compared between excipients” value in data set [1] (ascorbate, citrate, histidine, methionine formulations) was “slightly increased complement inhibiting activity compared to peptide formulated in methionine”. Moreover, the “Inhibition of complement activation in the hemolytic assay” value in data set [1] is recorded as “able to maintain dose-dependent inhibition of complement activation”. Also, the Gelling behavior result in data set [2] was “would start to gel if not kept on ice”. In data set [5], the Aqueous solubility entry is listed as “highly soluble”.
